Consider one compound from patent US11453640B2, “Small molecules for disrupting the super elongation complex and inhibiting transcription elongation for cancer therapy” (NORTHWESTERN UNIVERSITY, priority 2018, dated 2022).

One data set relates to ELL2. Kind of data set: Western blotting of ELL2 protein levels in 293T cells. It counts as cell-based, human. As to conditions: 20 μM, 6 hr. From the text: FIG. 10, related to FIG. 3. Disruption of SEC phenocopies slow Pol II mutants and reduces Pol II processivity. (A) Identification of the 1,057 genes with typical Pol II termination signals around the TES. Pol II signals from WT Pol II mutant expressing cells were K-means clustered into 5 groups with a window of 15 kb around the TES. The expressing genes from clusters with a typical Pol II termination signals were selected and plotted. (B) SEC inhibitor treatments of the WT Pol II mutant expressing cells lead to a Pol II phenotype similar to slower Pol II mutant expressing cells as viewed at the 3′-end of genes. (C-D) Time-dependent and dose-dependent shift of Pol II signals around the TES sites by KL-2 treatment (N=1,057). (E) Genome browser tracks of Serine 2 phosphorylated (Ser2P) Pol II at the SRSF1 gene in HEK293T cells treated with vehicle or SEC inhibitors. SEC inhibitor treatments result in increased Pol II occupancy at the promoter-proximal region and increased occupancy of Ser2P Pol II in the gene body. […] (H) SEC inhibition results in decreased protein levels of the SEC subunit ELL2. 293T cells were treated with 20 μM of the indicated inhibitors for 6 hr before harvesting cells for western blotting. (I-K) Depletion of ELL2 in HEK293T cells (I) results in apparent early termination of Pol II with reduced Pol II occupancy downstream of the PIM3 (J) and ACTB (K) annotated TES. […]
On the technique in general: In western blotting, separated proteins are transferred to a membrane and probed.

The subject of data set [1] is AFF1 and AFF4 occupancy on chromatin. Kind of data set: ChIP-seq of AFF1 and AFF4 chromatin occupancy in HEK293T cells. It is filed as cell-based, human. As to conditions: 6 hr. From the text:
FIG. 1. Peptidomimetic identification of disruptors of the AFF4-CCNT1 interaction within the Super Elongation Complex. (A) Schematic for the identification of small molecule inhibitors of the AFF4-CCNT1 interaction using in silico high-throughput screening. Compounds from the ZINC database were docked with the AFF4-CCNT1 structure (4IMY) using a three-tier glide-docking algorithm, which led to 40 candidates. Residues forming the deep binding pocket of CCNT1 are labeled orange and residues of the AFF4 peptide are labeled red. (B) Validation screening identified KL-1 as a potential SEC disruptor using AlphaLISA screening. […] The Ki constants of both compounds were measured with the AlphaLISA assays. […] 5 μl, 10 and 20 μl cell lysates were loaded and the protein levels of AFF1, AFF4, CCNT1, CDK9 and Tubulin (load control) were determined by western blotting.
Chromatin Immunoprecipitation Sequencing. […] ChIP-seq reads were aligned to the Drosophila genome (UCSC dm3) or human genome (UCSC hgl9). Alignments were processed with Bowtie version 1.1.2, allowing only uniquely mapping reads with up to two mismatches within the 50 bp read. The resulting reads were extended to 150 bp toward the interior of the sequenced fragment and normalized to total reads aligned (reads per million, r.p.m.). […] P-values were calculated with a two-sided Kolmogorov-Smirnov test. […]

Another data set concerns MDA231-LM2 cells. Kind of data set: Colony formation of MDA231-LM2 cells in vitro. It is filed as cell-based. As to conditions: 5 days. The method, then: (§1) FIG. 14, related to FIG. 7. SEC disruptors delay tumor progression and improve survival of MDA231-LM2 tumor mice. (A) KL-1 and KL-2 inhibit the colony formation of MDA231-LM2 cells in vitro. 5×10^3 MDA231-LM2 cells were seeded in 6-well plates and treated with KL-1 or KL-2 at the indicated doses for 5 days. Crystal violet staining was performed to stain the colonies. (B) KL-1 and KL-2 induce apoptosis in MDA231-LM2 cells. Bar graph depiction of Annexin V positive MDA231-LM2 cells after 24 hr of KL-1 and KL-2 treatments at the indicated concentrations. Data are represented as Mean+/−SD. […] Each individual line indicates the weights of each mouse during toxicity test.

Data set [2] in a line: Toxicity test in mice (body weight, sickness). It counts as in vivo. The note with it: 5 doses of 50 mg/kg, monitored 35 days. The method, then: as §1

On to `COc1cccc(C(=O)CC(=O)C(=O)Nc2cc(Cl)ccc2C)c1` [KL-1, N-(5-chloro-2-methylphenyl)-4-oxo-4-(3-methoxyphenyl)-2-oxobutanamide], for which the ELL2 protein levels entry with ELL2 is recorded as “led to reduced ELL2 protein levels”. In data set [1], the “chromatin occupancy of AFF1 and AFF4” value was “decreased occupancy of AFF1 and AFF4”. For the same compound, the colony formation capability result in the data set with MDA231-LM2 cells was “could inhibit the colony formation capability”. Besides, the “weight loss in mice” value in data set [2] (intraperitoneal) is listed as “does not result in significant weight loss”. Moreover, the “sign of sickness in mice” value in data set [2] is given as “no obvious sign of sickness was observed”.
